Results reported in US20260132103A1, “Bumetanide Derivatives for the Therapy of Stroke and Other Neurological Diseases/Disorders Involving NKCCs” (University of Pittsburgh - Of the Commonwealth System of …, priority 2018, published 2026).

How the values were obtained:
[1] = test system: transient focal cerebral ischemia (tMCAO) in mice; experiment: Body weight and survival 1-14 days after tMCAO; assay type: in vivo, mouse; settings: for body weight changes: 1-14 days after tMCAO, versus DMSO Veh control; for mortality rate: between 1-14 days post tMCAO, BMT 10, STS5 13, STS66 12 mg/kg/day i.p.
Description: FIGS. 1A-1C: Efficacy of NKCC1 inhibitors in reducing ischemic infarction, cerebral edema, and the post-stroke survival in normotensive mice after tMCAO (see Example 3). (1A) Experimental protocol and data collection. Transient middle cerebral artery occlusion (tMCAO) was induced in normal C57/b6 mice. DMSO, BMT (10 mg/kg body weight), STS5 (13 mg/kg) or STS66 (12 mg/kg) was administered via intraperitoneal injection (i.p.) as described in method. (1 B) Representative TTC staining images in normotensive mice at 24 h reperfusion with quantitative analysis of infarct volume. Data are mean±SD, n=6-13 (male, n=3-9; female, n=3-4, *p<0.05). Scale: 5 mm. (1C) Percentage hemisphere swelling at 24 h reperfusion. Data are mean±SD, n=6-13, *p<0.05. (1D) Body weight change during 1-14 days after tMCAO. Data are mean±SD, n=5-9 (male, n=4; female, n=2, *p<0.05). (1E) Survival curve during 1-14 day after tMCAO. Data are mean±SD, n=5-9 (male, n=3-7; female, n=2, *p<0.05).
Transient focal cerebral ischemia was induced in mice by intraluminal occlusion of the left middle cerebral artery (MCA) for 50 min as described previously (Chen H et al., 2005). Mice were anesthetized with 3% isoflurane in 70%: 30% N2O/O2 until they were unresponsive to the tail pinch test. Animals were then fitted with a nose cone blowing 1.5% isoflurane for anesthesia maintenance. The left common carotid artery was exposed and the occipital artery branches of the external carotid artery were isolated and coagulated. The internal carotid artery was isolated and the extracranial branch was dissected and ligated. A rubber silicon-coated monofilament suture (6-0) was introduced into the internal carotid artery lumen and gently advanced approximately 8-9 mm to block the MCA blood flow for 50 min. The rectal temperature was maintained at 37.0±0.5° C. during surgery through a temperature-controlled heating pad. Achievement of ischemia was confirmed by monitoring regional cerebral blood flow (rCBF) with laser speckle contrast imager (Pericam). For reperfusion, the suture was withdrawn after the MCAO. The incision was closed and the mouse recovered under a heating lamp to maintain the core temperature (36.0-37.0° C.) during the 30-60 min recovery period. After recovery, animals were returned to their cages with free access to food and water.
Vehicle: DMSO (2 ml/kg body weight/day), the NKCC1 inhibitor bumetanide (BMT, 10 mg/kg body weight/day in DMSO), bumetanide's prodrug STS5 (13 mg/kg body weight/day in DMSO), or the novel NKCC1 inhibitor STS66 according to the invention (12 mg/kg body weight/day in DMSO) was administered via intraperitoneal injection (i.p). The initial half dose of the drugs (BMT, STS5, STS66) was given at 3 h after the onset of reperfusion and the second half dose at 8 h reperfusion in the tMCAO model.

[2] = test system: permanent focal cerebral ischemia (pdMCAO) in AngII-induced hypertensive mice; experiment: Brain infarct volume and swelling after pdMCAO in AngII-induced hypertensive mice; assay type: in vivo, mouse; settings: 24 h post-pdMCAO, i.p., half dose at 3 h and 8 h after pdMCAO
Description: FIG. 3: Effects of NKCC1 inhibitors against the worsened ischemic stroke in AngII-induced hypertensive mice after pdMCAO (see Example 3). (A) Experimental protocol in AngII-induced hypertensive C57/B6 mice. Permanent distal middle cerebral artery occlusion (pdMCAO) was induced in mice at day 14 post-AngII infusion. DMSO, BMT or STS66 was administered in mice via i.p. with the initial half dose at 3 h and the second half dose at 8 h after pdMCAO. (B) Representative TTC-stained mouse coronal brain sections at 2-8 mm posterior of the frontal pole were shown. TTC staining was performed at 24 h post pdMCAO. Scale: 5 mm. (C) Brain infarct volume was calculated. Data are mean±SD. Saline (n=4), AngII (n=5); *p<0.05 vs. saline control.
Permanent focal cerebral ischemia was induced by permanent occlusion of the distal middle cerebral artery (pdMCAO) in mice (Suenaga J, et al., 2015). Under anesthesia as described above, a skin incision at the midline of the neck was made. After being separated from the vagal nerve, the left CCA was exposed and occluded by ligation and the skin was sutured. Another skin incision (1 cm) was made between the left eye and the ear using fine operation scissors. The temporal muscle was identified and detached from the skull in its apical and dorsal part without totally removing the muscle by using the forceps. The MCA below the transparent skull in the rostral part of the temporal area, dorsal to the retro-orbital sinus was identified. If the MCA bifurcation is not visible (due to an anatomical normal variation), the vessel most rostral was identified. The skull above the MCA branch was thinned out with the drill until it has a thin and translucent texture. The artery, proximal and distal to the MCA bifurcation, was coagulated with the electrocoagulation forceps (in a bipolar mode at 7 W). The temporal muscle was relocated to its position and the burr hole was covered with wax and the skin wound was sutured and infiltrated with analgesia bupivacaine (100 μl 0.25%) topically. The animal was placed in a cage and monitored for recovery from anesthesia. […]
At 24 h post-reperfusion, mice were anesthetized with 5% isoflurane and then decapitated. […] Ischemic lesions were traced in each slice in a blinded manner, and the total volume of infarction was calculated with correction for edema, as described by Swanson et al., 1990 using ImageJ software. […] Brain swelling was determined with the following formula. […]
The efficacy of NKCC1 inhibitors was then tested in AngII-induced hypertensive mice after permanent MCAO model (pdMCAO), which is more clinically relevant to the majority ischemic stroke patients (McBride D W, et al., 2017). Brain infarct volume and swelling were measured at 24 h after pdMCAO. […]

| SMILES | body weight changes [1] | mortality rate [1] | brain swelling (edema) [2] [%] | infarct volume [2] [mm^3] |
| --- | --- | --- | --- | --- |
| CCCCNc1cc(C(=O)O)cc(S(N)(=O)=O)c1Oc1ccccc1 [BMT, 3-(butylamino)-4-phenoxy-5-sulfamoylbenzoic acid, reference compound] | no differences in the body weight changes | ~16.7% | 7.1±1.1 | 22.4±2.9 |
| CCCCNc1cc(CNCC(F)(F)F)cc(S(N)(=O)=O)c1Oc1ccccc1 [STS66, 3-(Butylamino)-2-phenoxy-5-[(2,2,2-trifluoroethylamino)methyl]benzenesulfonamide] | no differences in the body weight changes | none of the STS66-treated mice died | 2.4±1.1 | 13.3±2.5 |
